Results on ten compounds are retold here after patent US9993462B2, “Hydantoin derivative-containing pharmaceutical composition” (Chugai Seiyaku Kabushiki Kaisha, priority 2014, dated 2018).

The structures appear in SMILES notation. pEC50: −log10 of the molar value.

One data set addresses T1, human PTH1R (Homo sapiens, UniProt Q03431).
T1 construct: expressed in transfected cells; host or cells: HKRK-B7 (LLC-PK1 porcine kidney cells stably expressing human PTH1R)
T1 sequence (Q03431 27-593): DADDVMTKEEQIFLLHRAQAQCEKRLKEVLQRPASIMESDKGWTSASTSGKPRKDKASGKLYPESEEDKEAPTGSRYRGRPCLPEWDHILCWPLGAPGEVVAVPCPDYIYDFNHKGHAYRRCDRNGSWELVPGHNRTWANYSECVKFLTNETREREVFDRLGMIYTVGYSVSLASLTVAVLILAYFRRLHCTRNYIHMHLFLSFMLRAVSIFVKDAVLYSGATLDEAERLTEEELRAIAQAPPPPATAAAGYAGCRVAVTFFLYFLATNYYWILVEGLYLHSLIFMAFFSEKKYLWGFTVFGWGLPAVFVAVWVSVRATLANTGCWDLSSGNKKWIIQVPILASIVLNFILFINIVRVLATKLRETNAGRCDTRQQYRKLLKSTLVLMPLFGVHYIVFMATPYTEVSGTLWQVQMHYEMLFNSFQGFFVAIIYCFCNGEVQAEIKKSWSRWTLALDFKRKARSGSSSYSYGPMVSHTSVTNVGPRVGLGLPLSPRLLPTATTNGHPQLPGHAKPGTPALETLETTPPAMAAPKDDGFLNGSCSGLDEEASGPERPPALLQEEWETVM
The data set can be described thus: In vitro cAMP signal activity via the human PTH1R (HKRK-B7 cells). It is filed as cell-based. To be noted: human PTH(1-34) at 100 nM = 100%; for EC20: concentration at 20% cAMP signaling activity. Here is the method:
Human PTH(1-34) and calcitonin were purchased from Peptide Institute, Inc. (Osaka, Japan), dissolved in 10 mM acetic acid to 1 mM and stored in a −80° C. freezer.
Cells were cultured in Dulbecco's modified Eagle's medium (DMEM) supplemented with 10% fetal bovine serum (Hyclone), 100 units/ml penicillin G and 100 μg/ml streptomycin sulfate (Invitrogen Corp) at 37° C. in a humidified atmosphere containing 5% CO2.
cAMP signal transduction analysis utilized LLC-PK1 cells not expressing the PTH1R, and HKRK-B7 cells, that is, LLC-PK1 cells overexpressing the human PTH1R at 9.5×10^5 receptors/cell (Takasu et al., J. Bone. Miner. Res. 14:11-20, 1999).
HKRK-B7 or LLC-PK1 cells were seeded into a 96-well plate at 1×10^5 cells/well and incubated overnight. On the following day, 50 μl of cAMP assay buffer (DMEM, 2 mM IBMX, 0.2 mg/ml bovine serum albumin, 35 mM Hepes-NaOH, pH 7.4) containing human PTH(1-34) or each compound was added and the plate was placed in a 37° C. incubator. The cells were incubated for 20 minutes. After removing the medium, the cells were washed with 100 μl of cAMP assay buffer once. The plate was placed on dry ice powder to freeze the cells and then removed from the dry ice. The cells were lysed with 40 μl of 50 mM HCl and frozen again on dry ice. The amount of intracellular cAMP produced was measured using a commercially available cAMP EIA kit (Biotrack cAMP EIA system, GE health care).
Analyses were performed using a variable gradient S-shaped dose-response curve equation.

In the next data set the test system is rat hepatocyte. The data set can be described thus: Metabolic stability using rat hepatocyte. The class given is in vitro ADME. The method, then:
Liver cells were prepared from the liver of rats (SD, female) by a collagenase perfusion method. A compound of the Reference Examples or a Comparative Example was added, and this was incubated at 37° C. for a specified amount of time, followed by addition of a reaction-stopping solution. The concentration of the parent compound at each reaction time was measured using LC/MS/MS, and inherent clearance (μL/10^6 cells/min) was calculated from the slope of the reaction time versus residual rate.
• Cell concentration: 1×10^6 cells/mL • Compound concentration: 1 μM • Medium: Williams' medium E • Reaction time: 0, 15, 30, 60, 120, and 240 minutes • Reaction-stopping solution: acetonitrile/2-propanol (4/6, v/v)

In a further data set the test system is TPTX rat. The data set is described as follows: Calcemic action in the TPTX rat model. It is filed as in vivo. To be noted: TPTX rats, 30 mg/kg oral; for change of serum Ca concentration from the Pre-value (in words): up to 24 hours after administration. The method, then: Four-week old female Crl:CD(SD) rats were obtained from Charles River Japan (Atsugi Breeding Center), and were acclimated to standard laboratory conditions of 20-26° C. and 35-75% humidity for one week. The rats were given tap water and were fed ad libitum with standard rodent chow (CE-2) (CLEA Japan, Inc.) containing 1.1% calcium, 1.0% phosphoric acid, and 250 IU/100 g of vitamin D3.
TPTX was performed on five-week old rats. Some of the individuals were subjected to sham operation (Sham). Individuals whose serum Ca concentration was less than 8 mg/dL on four days after the operation were selected for use as TPTX rats. On five days after the operation, the rats were assigned to eight TPTX groups and one Sham group (n=5, each group) based on their body weight and serum Ca concentration measured on four days after the operation. The solvent alone was orally administered to the Sham group and the TPTX-Vehicle group at a volume of 10 mL/kg. Each test article was orally administered individually to each TPTX test article group by dissolving it in a solvent at a dose of 30 mg/10 mL/kg. The solvent composition was 10% dimethylsulfoxide (Wako Pure Chemical Industries, Ltd.), 10% Cremophor EL (Sigma-Aldrich Japan LLC), 20% hydroxypropyl-β-cyclodextrin (Nihon Shokuhin Kako Co., Ltd.), glycine (Wako Pure Chemical Industries, Ltd.); and the pH was adjusted to 10. Immediately before administration of each sample, Pre-blood collection was performed, and blood collection was carried out at 2, 6, 10, and 24 hours after administration to measure the serum Ca concentration. Each blood collection was carried out from the jugular vein under isoflurane inhalation anesthesia.
Serum Ca measurement: Serum obtained by centrifugation from the collected blood was measured by using an automatic analyzer TBA-120FR (Toshiba Medical Systems Corporation).
For statistical analysis of the animal studies, data are shown as mean±standard error (SE). Statistical analysis were performed by unpaired test of the SAS Preclinical Package (Ver. 5.00.010720, SAS Institute Japan, Tokyo, Japan).

In general, EC20 refers to the concentration at which the effect reaches the 20% level. Read a high EC20 as a need for much substance. At human PTH1R, `CCC1CCC(C2=NC3(CCN(S(=O)(=O)CCc4ccc(N5CC(=O)NC5=O)cc4C)CC3)C(=O)N2)CC1` (stereo not drawn) [Comparative Example 4, reference compound] displayed an EC20 greater than 505000 nM.

Regarding `Cc1cc(N2C(=O)NC(=O)C2(C)C)cc(C)c1CCS(=O)(=O)N1CCC2(CC1)N=C(c1cccc(Br)c1)NC2=O` [Compound 2, 1-(4-(2-((2-(3-bromophenyl)-4-oxo-1,3,8-triazaspiro[4.5]deca-1-en-8-yl)sulfonyl)ethyl)-3,5-dimethylphenyl)-5,5-dimethylimidazolidine-2,4-dione], the EC20 at human PTH1R was 2400 nM. Moreover, in the data set with rat hepatocyte, the “rat hepatocyte metabolic stability compared to Comparative Examples 1, 2, 3, 5, and 6 (in words)” value is reported as “increased”.

For `Cc1cc(N2C(=O)CNC2=O)cc(C)c1CCS(=O)(=O)N1CCC2(CC1)N=C(c1ccc(F)c(C(F)(F)F)c1)NC2=O` [Comparative Example 3, reference compound], the EC20 on human PTH1R is 2000 nM.

Compound `CC[C@H]1CC[C@H](C2=NC3(CCN(S(=O)(=O)CCc4ccc(N5C(=O)NC(=O)C5C)cc4C)CC3)C(=O)N2)CC1` (stereo partly drawn) [Comparative Example 5, reference compound] displayed an EC20 at human PTH1R of 3100 nM.

In the case of `Cc1cc(N2C(=O)NC(=O)C2(C)C)cc(C)c1CCS(=O)(=O)N1CCC2(CC1)N=C(c1ccc(F)c(OC(F)(F)F)c1)NC2=O` [Compound 1, 1-(4-(2-((2-(4-fluoro-3-(trifluoromethoxy)phenyl)-4-oxo-1,3,8-triazaspiro[4.5]deca-1-en-8-yl)sulfonyl)ethyl)-3,5-dimethylphenyl)-5,5-dimethylimidazolidine-2,4-dione], the EC20 on human PTH1R was 1300 nM. For the same compound, in the data set on TPTX rat, the “achievement of the therapeutic target range of serum Ca concentration of 7.6 to 8.8 mg/dL” value is recorded as “could not be achieved” and the “change of serum Ca concentration from the Pre-value (in words)” value was “smaller positive changes from the Pre-value”.

As to `Cc1cc(N2C(=O)NC(=O)C2(C)C)cc(C)c1CCS(=O)(=O)N1CCC2(CC1)N=C(c1ccc3c(c1)OC(F)(F)O3)NC2=O` [Compound 5, 1-(4-(2-((2-(2,2-difluorobenzo[d][1,3]dioxol-5-yl)-4-oxo-1,3,8-triazaspiro[4.5]deca-1-en-8-yl)sulfonyl)ethyl)-3,5-dimethylphenyl)-5,5-dimethylimidazolidine-2,4-dione], the EC20 on human PTH1R came out at 1700 nM. For the same compound, the “rat hepatocyte metabolic stability compared to Comparative Examples 1, 2, 3, 5, and 6 (in words)” value in the data set with rat hepatocyte is “increased”.

One may read the pEC50 as −log10 of the EC50, conventionally taken in molar units. A lower pEC50 goes with a high EC50. Take `Cc1cc(N2C(=O)NC(=O)C2(C)C)cc(C)c1CCS(=O)(=O)N1CCC2(CC1)N=C(c1ccc(F)c(C(F)(F)F)c1)NC2=O` [Compound 3, 1-(4-(2-((2-(4-fluoro-3-(trifluoromethyl)phenyl)-4-oxo-1,3,8-triazaspiro[4.5]deca-1-en-8-yl)sulfonyl)ethyl)-3,5-dimethylphenyl)-5,5-dimethylimidazolidine-2,4-dione]: the EC20 on human PTH1R turned out to be 1500 nM. Besides, the pEC50 on human PTH1R (concentration at 50% cAMP signaling activity) is 5.14.

Compound `Cc1cc(N2C(=O)NC(=O)C23CCN(C)CC3)cc(C)c1CCS(=O)(=O)N1CCC2(CC1)N=C(c1ccc(OC(F)(F)F)cc1)NC2=O` [Compound 9, 1-(3,5-dimethyl-4-(2-((4-oxo-2-(4-(trifluoromethoxy)phenyl)-1,3,8-triazaspiro[4.5]deca-1-en-8-yl)sulfonyl)ethyl)phenyl)-8-methyl-1,3,8-triazaspiro[4.5]decane-2,4-dione] returned an EC20 at human PTH1R of 2600 nM. Further, the “rat hepatocyte metabolic stability compared to Comparative Examples 1, 2, 3, 5, and 6 (in words)” value in the data set on rat hepatocyte is listed as “increased”.

`Cc1cc(N2C(=O)CNC2=O)cc(C)c1CCS(=O)(=O)N1CCC2(CC1)N=C(c1cccc(OC(F)(F)F)c1)NC2=O` [Comparative Example 2, reference compound] yielded an EC20 at human PTH1R of 3100 nM. Further, in the data set on TPTX rat, the “achievement of the therapeutic target range of serum Ca concentration of 7.6 to 8.8 mg/dL” value was “could not be achieved” and the “change of serum Ca concentration from the Pre-value (in words)” value was “smaller positive changes from the Pre-value”.

On human PTH1R, `CC[C@H]1CC[C@H](C2=NC3(CCN(S(=O)(=O)CCc4ccc(N5C(=O)NC(=O)C5(C)C)cc4C)CC3)C(=O)N2)CC1` [Comparative Example 6, reference compound] displayed an EC20 of 3600 nM.
